This passage reports IC50 results from patent publication US12421252B2, “Spiro (isobenzofuranazetidine) compounds for the treatment of autoimmune disease” (Hoffmann-La Roche Inc., priority 2020, dated 2025).

The target in the assay is T1, human TLR8 (Homo sapiens, UniProt Q9NR97).
T1 sequence (Q9NR97 27-1041): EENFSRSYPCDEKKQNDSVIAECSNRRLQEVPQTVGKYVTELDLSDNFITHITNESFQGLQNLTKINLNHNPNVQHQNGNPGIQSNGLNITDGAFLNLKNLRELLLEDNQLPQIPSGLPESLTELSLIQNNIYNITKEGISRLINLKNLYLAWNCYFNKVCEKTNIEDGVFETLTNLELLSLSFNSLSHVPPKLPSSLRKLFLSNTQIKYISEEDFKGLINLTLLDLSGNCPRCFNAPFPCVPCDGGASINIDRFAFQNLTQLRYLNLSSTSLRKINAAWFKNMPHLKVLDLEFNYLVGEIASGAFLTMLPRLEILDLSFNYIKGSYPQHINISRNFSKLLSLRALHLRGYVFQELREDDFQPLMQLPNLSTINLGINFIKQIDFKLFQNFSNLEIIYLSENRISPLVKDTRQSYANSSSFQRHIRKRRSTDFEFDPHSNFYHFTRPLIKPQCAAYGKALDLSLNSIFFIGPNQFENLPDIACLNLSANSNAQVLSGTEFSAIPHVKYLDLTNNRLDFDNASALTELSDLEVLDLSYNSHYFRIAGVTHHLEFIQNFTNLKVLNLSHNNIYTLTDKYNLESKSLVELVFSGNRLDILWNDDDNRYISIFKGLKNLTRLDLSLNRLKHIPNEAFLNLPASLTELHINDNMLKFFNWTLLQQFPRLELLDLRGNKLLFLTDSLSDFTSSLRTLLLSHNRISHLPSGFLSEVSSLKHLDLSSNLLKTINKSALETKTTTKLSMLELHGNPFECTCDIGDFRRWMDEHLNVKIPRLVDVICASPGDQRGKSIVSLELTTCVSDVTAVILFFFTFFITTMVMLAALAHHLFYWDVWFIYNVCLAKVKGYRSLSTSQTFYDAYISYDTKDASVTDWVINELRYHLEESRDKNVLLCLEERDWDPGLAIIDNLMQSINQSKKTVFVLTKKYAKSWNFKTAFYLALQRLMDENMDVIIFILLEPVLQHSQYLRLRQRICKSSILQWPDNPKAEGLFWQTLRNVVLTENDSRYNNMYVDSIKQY
The assay can be described thus: HEK293-Blue-hTLR-8 cells assay. It counts as cell-based. The conditions noted are these: HEK293-Blue-hTLR8 cells, R848 stimulation, 20 hrs, SEAP reporter; read-out: HEK/hTLR8 IC50. From the text:
HEK293-Blue-hTLR-8 cells assay:
A stable HEK293-Blue-hTLR-8 cell line was purchased from InvivoGen (Cat. #: hkb-htlr8, San Diego, California, USA). These cells were originally designed for studying the stimulation of human TLR8 by monitoring the activation of NF-κB. A SEAP (secreted embryonic alkaline phosphatase) reporter gene was placed under the control of the IFN-β minimal promoter fused to five NF-κB and AP-1-binding sites. The SEAP was induced by activating NF-κB and AP-1 via stimulating HEK-Blue hTLR8 cells with TLR8 ligands. Therefore the reporter expression was declined by TLR8 antagonist under the stimulation of a ligand, such as R848, for incubation of 20 hrs. The cell culture supernatant SEAP reporter activity was determined using QUANTI-Blue™kit (Cat. #: rep-qb1, Invivogen, San Diego, Ca, USA) at a wavelength of 640 nm, a detection medium that turns purple or blue in the presence of alkaline phosphatase.
HEK293-Blue-hTLR8 cells were incubated at a density of 250,000˜450,000 cells/mL in a volume of 170 μL in a 96-well plate in Dulbecco's Modified Eagle's medium (DMEM) containing 4.5 g/L glucose, 50 U/mL penicillin, […], […], 2 mM L-glutamine, 10% (v/v) heat-inactivated fetal bovine serum with addition of 20 μL test compound in a serial dilution in the presence of final DMSO at 1% and 10 μL of 60 uM R848 in above DMEM, perform incubation under 37° C. in a CO2 incubator for 20 hrs. Then 20 μL of the supernatant from each well was incubated with 180 μL Quanti-blue substrate solution at 37° C. for 2 hrs and the absorbance was read at 620-655 nm using a spectrophotometer. The signaling pathway that TLR8 activation leads to downstream NF-κB activation has been widely accepted, and therefore similar reporter assay was modified for evaluating TLR8 antagonist.
As to `C[C@@H]1CN(c2ccc(C#N)n3ncc(F)c23)C[C@H](CN2CC3(C2)OCc2cc(N4CC5(CNC5)C4)ccc23)O1` [Example 12, 4-[(2S,6R)-2-[[6-(2,6-diazaspiro[3.3]heptan-2-yl)spiro[1H-isobenzofuran-3,3′-azetidine]-1′-yl]methyl]-6-methyl-morpholin-4-yl]-3-fluoro-pyrazolo[1,5-a]pyridine-7-carbonitrile], the IC50 came to 0.037 µM.
In the case of `C[C@@H]1CN(c2ccc(C#N)n3ncc(F)c23)C[C@H](CN2CC3(C2)OCc2cc(N4CC5(CN(C)C5)C4)cnc23)O1` [Example 22, 3-fluoro-4-[(2R,6S)-2-methyl-6-[[3-(6-methyl-2,6-diazaspiro[3.3]heptan-2-yl)spiro[5H-furo[3,4-b]pyridine-7,3′-azetidine]-1′-yl]methyl]morpholin-4-yl]pyrazolo[1,5-a]pyridine-7-carbonitrile] it was 0.064 µM; in that of `C[C@@H]1CN(c2ccc(C#N)n3ncc(F)c23)C[C@H](CN2CC3(C2)OCc2cc(N4CC5(CN(C)C5)C4)ccc23)O1` [Example 2, 3-fluoro-4-[(2R,6S)-2-methyl-6-[[6-(6-methyl-2,6-diazaspiro[3.3]heptan-2-yl)spiro[1H-isobenzofuran-3,3′-azetidine]-1′-yl]methyl]morpholin-4-yl]pyrazolo[1,5-a]pyridine-7-carbonitrile], 0.025 µM.
`[2H]c1ccc2c(N3C[C@H](CN4CC5(C4)OCc4cc(N6CC(N)C6)cnc45)O[C@H](C)C3)ccc(C#N)c2n1` [Example 20, 5-[(2S,6R)-2-[[3-(3-aminoazetidin-1-yl)spiro[5H-furo[3,4-b]pyridine-7,3′-azetidine]-1′-yl]methyl]-6-methyl-morpholin-4-yl]-2-deuterio-quinoline-8-carbonitrile]: the IC50 turned out to be 0.03 µM.
In the case of `C[C@@H]1CN(c2ccc(C#N)n3ncc(F)c23)C[C@H](CN2CC3(C2)OCc2cc(N4CC(N)C4)ccc23)O1` [Example 9, 4-[(2S,6R)-2-[[6-(3-aminoazetidin-1-yl)spiro[1H-isobenzofuran-3,3′-azetidine]-1′-yl]methyl]-6-methyl-morpholin-4-yl]-3-fluoro-pyrazolo[1,5-a]pyridine-7-carbonitrile], the IC50 amounted to 0.045 µM.
In the case of `[2H]c1ccc2c(N3C[C@H](CN4CC5(C4)OCc4cc(N6C[C@H]7NCCO[C@@H]7C6)ncc45)O[C@H](C)C3)ccc(C#N)c2n1` [Example 28, 5-[(2S,6R)-2-[[6-[(4aR,7aR)-3,4,4a,5,7,7a-hexahydro-2H-pyrrolo[3,4-b][1,4]oxazin-6-yl]spiro[1H-furo[3,4-c]pyridine-3,3′-azetidine]-1′-yl]methyl]-6-methyl-morpholin-4-yl]-2-deuterio-quinoline-8-carbonitrile] it was 0.025 µM; in that of `C[C@@H]1CN(c2ccc(C#N)n3ncc(F)c23)C[C@H](CN2CC3(C2)OCc2cc(N4CC(C)(N)C4)ncc23)O1` [Example 24, 4-[(2S,6R)-2-[[6-(3-amino-3-methyl-azetidin-1-yl)spiro[1H-furo[3,4-c]pyridine-3,3′-azetidine]-1′-yl]methyl]-6-methyl-morpholin-4-yl]-3-fluoro-pyrazolo[1,5-a]pyridine-7-carbonitrile], 0.059 µM.
With `C[C@@H]1CN(c2ccc(C#N)n3nccc23)C[C@H](CN2CC3(C2)OCc2cc(N4CC(C)(N)C4)ncc23)O1` [Example 25, 4-[(2S,6R)-2-[[6-(3-amino-3-methyl-azetidin-1-yl)spiro[1H-furo[3,4-c]pyridine-3,3′-azetidine]-1′-yl]methyl]-6-methyl-morpholin-4-yl]pyrazolo[1,5-a]pyridine-7-carbonitrile] the figure was 0.12 µM; with `C[C@@H]1CN(c2ccc(C#N)n3ncc(F)c23)C[C@H](CN2CC3(C2)OCc2cc(N4CCNCC4)ccc23)O1` [Example 6, 3-fluoro-4-[(2R,6S)-2-methyl-6-[(6-piperazin-1-ylspiro[1H-isobenzofuran-3,3′-azetidine]-1′-yl)methyl]morpholin-4-yl]pyrazolo[1,5-a]pyridine-7-carbonitrile], 0.024 µM; with `C[C@@H]1CN(c2ccc(C#N)n3nccc23)C[C@H](CN2CC3(C2)OCc2cc(N4CC(C)(N)C4)cnc23)O1` [Example 26, 4-[(2S,6R)-2-[[3-(3-amino-3-methyl-azetidin-1-yl)spiro[5H-furo[3,4-b]pyridine-7,3′-azetidine]-1′-yl]methyl]-6-methyl-morpholin-4-yl]pyrazolo[1,5-a]pyridine-7-carbonitrile], 0.234 µM.
With `C[C@@H]1CN(c2ccc(C#N)n3ncc(F)c23)C[C@H](CN2CC3(C2)OCc2cc(N[C@H]4CNC[C@H]4F)ccc23)O1` [Example 3, 3-fluoro-4-[(2S,6R)-2-[[6-[[(3S,4R)-4-fluoropyrrolidin-3-yl]amino]spiro[1H-isobenzofuran-3,3′-azetidine]-1′-yl]methyl]-6-methyl-morpholin-4-yl]pyrazolo[1,5-a]pyridine-7-carbonitrile] the figure was 0.051 µM.
Consider `C[C@@H]1CN(c2ccc(C#N)n3ncc(F)c23)C[C@H](CN2CC3(C2)OCc2cc(N4CC5(CNCCO5)C4)ccc23)O1` [Example 4, 3-fluoro-4-[(2R,6S)-2-methyl-6-[[6-(5-oxa-2,8-diazaspiro[3.5]nonan-2-yl)spiro[1H-isobenzofuran-3,3′-azetidine]-1′-yl]methyl]morpholin-4-yl]pyrazolo[1,5-a]pyridine-7-carbonitrile], for which the IC50 stood at 0.035 µM.
With `[2H]c1ccc2c(N3C[C@H](CN4CC5(C4)OCc4cc(N6C[C@H]7NCCO[C@@H]7C6)ccc45)O[C@H](C)C3)ccc(C#N)c2n1` [Example 17, 5-[(2S,6R)-2-[[6-[(4aR,7aR)-3,4,4a,5,7,7a-hexahydro-2H-pyrrolo[3,4-b][1,4]oxazin-6-yl]spiro[1H-isobenzofuran-3,3′-azetidine]-1′-yl]methyl]-6-methyl-morpholin-4-yl]-2-deuterio-quinoline-8-carbonitrile], the IC50 amounted to 0.009 µM.
In the case of `[2H]c1ccc2c(N3C[C@H](CN4CC5(C4)OCc4cc(N6C[C@@H](N)[C@H](OC)C6)cnc45)O[C@H](C)C3)ccc(C#N)c2n1` [Example 31, 5-[(2S,6R)-2-[[3-[(3R,4R)-3-amino-4-methoxy-pyrrolidin-1-yl]spiro[5H-furo[3,4-b]pyridine-7,3′-azetidine]-1′-yl]methyl]-6-methyl-morpholin-4-yl]-2-deuterio-quinoline-8-carbonitrile] it was 0.03 µM; in that of `[2H]c1ccc2c(N3C[C@H](CN4CC5(C4)OCc4cc(N6CCNCC6)ccc45)O[C@H](C)C3)ccc(C#N)c2n1` [Example 18, 2-deuterio-5-[(2R,6S)-2-methyl-6-[(6-piperazin-1-ylspiro[1H-isobenzofuran-3,3′-azetidine]-1′-yl)methyl]morpholin-4-yl]quinoline-8-carbonitrile], 0.01 µM.
On to `[2H]c1ccc2c(N3C[C@H](CN4CC5(C4)OCc4cc(N6CC(C)(N)C6)cnc45)O[C@H](C)C3)ccc(C#N)c2n1` [Example 21, 5-[(2S,6R)-2-[[3-(3-amino-3-methyl-azetidin-1-yl)spiro[5H-furo[3,4-b]pyridine-7,3′-azetidine]-1′-yl]methyl]-6-methyl-morpholin-4-yl]-2-deuterio-quinoline-8-carbonitrile], for which the IC50 came to 0.017 µM.
